Laboratory results published in patent US20170223953A1, “MICROBICIDAL COMPOSITION” (Dow Global Technologies LLC, priority 2016, published 2017).

Tested on: Desulfovibrio longus ATCC 51456
Test: Biocidal efficacy (complete bacterial kill in 2 hours) and Synergy Index against anaerobic sulfate-reducing bacteria
Assay type: cell-based
Settings: 35° C.
Protocol: Surfactants and biocides were evaluated for synergy by determining the synergy index (S.I.) of the combination. Synergy index was calculated based on the concentration required to achieve a certain level of bacterial kill when the two antimicrobial compounds (A and B) are used alone and in combinations. The tests organisms were anaerobic sulfate-reducing bacteria (Desulfovibrio longus ATCC #51456). Inside an anaerobic chamber (Bactron anaerobic chamber), a deoxygenated sterile salt solution (3.1183 g of NaCl, 1.3082 mg of NaHCO3, 47.70 mg of KCl, 72.00 mg of CaCl2, 54.49 mg of MgSO4, 172.28 mg of Na2SO4, 43.92 mg of Na2CO3 in 1 L water) was inoculated with Desulfovibrio longus ATCC 51456 to a final bacterial concentration of 10^6 to 10^7 CFU/mL. Aliquots of this cell suspension were then treated with glutaraldehyde, and each of Surf A and B at selected active concentrations. After incubation at 35° C. for 2 hours, viable bacteria in the aliquots were enumerated using serial dilution method. […] SI is calculated as follows: Ca/CA+Cb/CB=Synergy Index (“SI”) Wherein: • Ca=Concentration of biocide A required to achieve a certain level of bacterial kill when used in combination with B • CA=Concentration of biocide A required to achieve a certain level of bacterial kill when used alone • Cb=Concentration of biocide B required to achieve a certain level of bacterial kill when used in combination with A • CB=Concentration of biocide B required to achieve a certain level of bacterial kill when used alone When the sum of Ca/CA and Cb/CB is greater than one, antagonism is indicated.

O=CCCCC=O [Glut, glutaraldehyde]
Concentration (active ppm) for complete bacterial kill in 2 hours, Glut (Table 1, Glut alone or in combination with Surf. A, 10^6 to 10^7 CFU/mL): 8.8 active ppm | Concentration (active ppm) for complete bacterial kill in 2 hours, Glut (Table 2, Glut alone or in combination with Surf. B): 19.8 active ppm | Concentration (active ppm) for complete bacterial kill in 2 hours, Glut (Table 3, Glut alone or in combination with Surf. C): 19.8 active ppm
